Toxic doses and inconclusive results are not listed. Cut-off read from the data, not from the text of the source: active = T/C of 150% or more; inactive = T/C below 125%.
Tested on: L1210 leukemia ip in BDF1 mice, survival T/C
Experiment: NCI In Vivo Anticancer Drug Screen. Data for tumor model L1210 Leukemia (intraperitoneal) in B6D2F1 (BDF1) mice
Details: endpoint: mean survival time, higher = longer survival
In short: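 Value reflects the ratio of survival in compound-treated mice to survival in vehicle-treated controls, with both groups carrying the same transplanted tumor.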

[1] = dose: 100.0 mg/kg/injection, schedule: Q01DX009 (ip), vehicle: saline with Tween-80
[2] = dose: 200.0 mg/kg/injection, schedule: Q01DX009 (ip), vehicle: saline with Tween-80
[3] = dose: 400.0 mg/kg/injection, schedule: Q01DX009 (ip), vehicle: saline with Tween-80
[4] = dose: 100.0 mg/kg/injection, schedule: Q01DX001 (ip), vehicle: acetone
[5] = dose: 200.0 mg/kg/injection, schedule: Q01DX001 (ip), vehicle: acetone
[6] = dose: 100.0 mg/kg/injection, schedule: Q04DX003 (ip), vehicle: saline with Tween-80
[7] = dose: 200.0 mg/kg/injection, schedule: Q04DX003 (ip), vehicle: saline with Tween-80
[8] = dose: 400.0 mg/kg/injection, schedule: Q04DX003 (ip), vehicle: saline with Tween-80
[9] = dose: 100.0 mg/kg/injection, schedule: Q01DX009 (ip), vehicle: Klucel (hydroxypropylcellulose) (HPC)
[10] = dose: 200.0 mg/kg/injection, schedule: Q01DX009 (ip), vehicle: Klucel (hydroxypropylcellulose) (HPC)
[11] = dose: 100.0 mg/kg/injection, schedule: Q04DX002 (ip), vehicle: saline with Tween-80
[12] = dose: 100.0 mg/kg/injection, schedule: Q01DX001 (ip), vehicle: saline
[13] = dose: 200.0 mg/kg/injection, schedule: Q01DX001 (ip), vehicle: saline

Measured: T/C

COC(=O)C1C2CC3c4[nH]c5ccc(OC)cc5c4CCN3CC2CC(OC(=O)c2cc(OC)c(OC)c(OC)c2)C1OC (configuration not stated)
inactive: dose: 10.0 mg/kg/injection, schedule: Q04DX003 (ip), vehicle: Klucel (hydroxypropylcellulose) (HPC) 102 % of control | dose: 20.0 mg/kg/injection, schedule: Q04DX003 (ip), vehicle: Klucel (hydroxypropylcellulose) (HPC) 98 % of control | dose: 22.81 mg/kg/injection, schedule: Q01DX009 (ip), vehicle: Klucel (hydroxypropylcellulose) (HPC) 111 % of control | dose: 40.0 mg/kg/injection, schedule: Q04DX003 (ip), vehicle: Klucel (hydroxypropylcellulose) (HPC) 114 % of control | dose: 45.62 mg/kg/injection, schedule: Q01DX009 (ip), vehicle: Klucel (hydroxypropylcellulose) (HPC) 91 % of control | dose: 80.0 mg/kg/injection, schedule: Q04DX003 (ip), vehicle: Klucel (hydroxypropylcellulose) (HPC) 96 % of control | dose: 91.25 mg/kg/injection, schedule: Q01DX009 (ip), vehicle: Klucel (hydroxypropylcellulose) (HPC) 94 % of control | dose: 160.0 mg/kg/injection, schedule: Q04DX003 (ip), vehicle: Klucel (hydroxypropylcellulose) (HPC) 93 % of control | dose: 240.0 mg/kg/injection, schedule: Q04DX003 (ip), vehicle: Klucel (hydroxypropylcellulose) (HPC) 107 % of control | dose: 365.0 mg/kg/injection, schedule: Q04DX003 (ip), vehicle: Klucel (hydroxypropylcellulose) (HPC) 102 % of control

CCc1nc2ccc(N=Cc3ccc(N(CCCl)CCCl)cc3C)cc2[nH]1
inactive: dose: 100.0 mg/kg/injection, schedule: Q04DX003 (ip), vehicle: Klucel (hydroxypropylcellulose) (HPC) 101 % of control | dose: 200.0 mg/kg/injection, schedule: Q04DX003 (ip), vehicle: Klucel (hydroxypropylcellulose) (HPC) 98 % of control | dose: 400.0 mg/kg/injection, schedule: Q04DX003 (ip), vehicle: Klucel (hydroxypropylcellulose) (HPC) 101 % of control

COc1ccc2nc(NCN3C(=O)c4ccccc4C3=O)sc2c1
inactive: [1] 96 % of control | dose: 100.0 mg/kg/injection, schedule: Q04DX003 (ip), vehicle: acetone 88 % of control | [2] 95 % of control | dose: 200.0 mg/kg/injection, schedule: Q04DX003 (ip), vehicle: acetone 88 % of control | [3] 93 % of control | dose: 400.0 mg/kg/injection, schedule: Q04DX003 (ip), vehicle: acetone 90 % of control

CCCCCCCCOP(=O)(N1CC1C)N1CC1C (configuration not stated)
inactive: dose: 33.0 mg/kg/injection, schedule: Q01DX003 (ip), vehicle: acetone 102 % of control | dose: 33.0 mg/kg/injection, schedule: Q01DX009 (ip), vehicle: saline with Tween-80 114 % of control | dose: 33.0 mg/kg/injection, schedule: Q01DX009 (ip), vehicle: saline 116 % of control | dose: 50.0 mg/kg/injection, schedule: Q01DX003 (ip), vehicle: acetone 96 % of control | dose: 50.0 mg/kg/injection, schedule: Q01DX009 (ip), vehicle: saline with Tween-80 122 % of control | dose: 75.0 mg/kg/injection, schedule: Q01DX003 (ip), vehicle: acetone 113 % of control | [4] 103 % of control | [5] 114 % of control

C1=CCC(OC2CCCCO2)=CC1 (configuration not stated)
inactive: [1] 96 % of control | [2] 94 % of control | [3] 87 % of control

Nc1ncnc(N)c1N(C=O)Cc1ccccc1
inactive: [4] 96 % of control | [5] 94 % of control | dose: 400.0 mg/kg/injection, schedule: Q01DX001 (ip), vehicle: acetone 91 % of control

CNC(=O)Cc1ccc2cc(OC)c(OC)cc2c1
inactive: [6] 95 % of control | [7] 101 % of control | [8] 91 % of control

Cc1cc(S(=O)(=O)F)ccc1O
inactive: [9] 106 % of control | [10] 103 % of control | dose: 400.0 mg/kg/injection, schedule: Q01DX009 (ip), vehicle: Klucel (hydroxypropylcellulose) (HPC) 98 % of control

Nc1ncnc2c1ncn2C1OC(COS(N)(=O)=O)C(O)C1O (configuration not stated)
inactive: dose: 0.5 mg/kg/injection, schedule: Q01DX001 (ip), vehicle: saline 113 % of control

O=S(=O)(O)CC(NCc1ccccc1)c1ccccc1 (configuration not stated)
inactive: dose: 100.0 mg/kg/injection, schedule: Q04DX003 (ip), vehicle: other 100 % of control | dose: 200.0 mg/kg/injection, schedule: Q04DX003 (ip), vehicle: other 97 % of control | dose: 400.0 mg/kg/injection, schedule: Q04DX003 (ip), vehicle: other 94 % of control

O=C1OC(=O)C2C3C=CC(C12)C1C2C(=O)OC(=O)C2C31 (configuration not stated)
inactive: [6] 94 % of control | [7] 94 % of control | [8] 91 % of control

COC(=O)c1cc(C)[n+]([O-])cc1C(=O)OC
inactive: dose: 100.0 mg/kg/injection, schedule: Q04DX003 (ip), vehicle: saline 92 % of control | dose: 200.0 mg/kg/injection, schedule: Q04DX003 (ip), vehicle: saline 97 % of control | dose: 400.0 mg/kg/injection, schedule: Q04DX003 (ip), vehicle: saline 100 % of control

S=C=NCCCCCCCCCCCCN=C=S
inactive: dose: 6.25 mg/kg/injection, schedule: Q01DX009 (ip), vehicle: saline with Tween-80 101 % of control | dose: 12.5 mg/kg/injection, schedule: Q01DX009 (ip), vehicle: saline with Tween-80 93 % of control | dose: 25.0 mg/kg/injection, schedule: Q04DX002 (ip), vehicle: saline with Tween-80 114 % of control | dose: 50.0 mg/kg/injection, schedule: Q04DX002 (ip), vehicle: saline with Tween-80 111 % of control | [11] 101 % of control

O=C(CCCC(=O)N/N=C/c1ccccc1C(=O)O)N/N=C\c1ccccc1C(=O)O
inactive: dose: 50.0 mg/kg/injection, schedule: Q01DX001 (ip), vehicle: saline 104 % of control | [12] 102 % of control | [13] 102 % of control | dose: 400.0 mg/kg/injection, schedule: Q01DX001 (ip), vehicle: saline 98 % of control

CCCC[CH2][Sn]([CH2]CCCC)[CH2]CCCC.CCCC[CH2][Sn]([CH2]CCCC)[CH2]CCCC
inactive: dose: 100.0 mg/kg/injection, schedule: Q04DX002 (sc), vehicle: olive oil, sesame oil, peanut oil 115 % of control | dose: 200.0 mg/kg/injection, schedule: Q04DX002 (sc), vehicle: olive oil, sesame oil, peanut oil 99 % of control | dose: 400.0 mg/kg/injection, schedule: Q04DX002 (sc), vehicle: olive oil, sesame oil, peanut oil 105 % of control

O=C(Nc1ccccc1)Oc1c(Cl)c(Cl)c(Cl)c(Cl)c1Cl
inactive: dose: 100.0 mg/kg/injection, schedule: Q04DX002 (ip), vehicle: Klucel (hydroxypropylcellulose) (HPC) 98 % of control | dose: 200.0 mg/kg/injection, schedule: Q04DX002 (ip), vehicle: Klucel (hydroxypropylcellulose) (HPC) 104 % of control

Cc1cc(C)[n+]([O-])c(C)c1[N+](=O)[O-]
inactive: [12] 101 % of control | [13] 101 % of control

Cc1ccc(S(=O)(=O)NC(=O)O/N=C/c2ccccn2)cc1
inactive: [6] 98 % of control | [7] 101 % of control | [8] 104 % of control

N=C(CNC(=O)OCc1ccccc1)N1CCCC1C(=O)O (configuration not stated)
inactive: [6] 100 % of control | [7] 101 % of control | [8] 101 % of control

CCOc1ccccc1NC(=O)Oc1ccc(SC)c(C)c1
inactive: [11] 113 % of control | dose: 200.0 mg/kg/injection, schedule: Q04DX002 (ip), vehicle: saline with Tween-80 110 % of control | dose: 400.0 mg/kg/injection, schedule: Q04DX002 (ip), vehicle: saline with Tween-80 103 % of control

CCOC(=O)c1ccc(NC(=O)Nc2cccc(C(F)(F)F)c2)cc1
inactive: [9] 92 % of control | [10] 90 % of control

CCCCCCC(C)O[Si](C)c1ccc(-c2ccccc2)cc1 (configuration not stated)
inactive: [1] 100 % of control | [6] 93 % of control | [2] 105 % of control | [7] 94 % of control | [3] 102 % of control | [8] 100 % of control
